Source: PMC7361110 (Antiviral Research, 2020)
Like-named read-outs stand apart in the source and are kept apart here.

Test system: SARS-CoV-2
Type: cell-based, SARS-CoV-2 (BetaCoV/France/IDF0571/2020 strain)
Settings: for antiviral activity against SARS-CoV-2 (in words): single drug

## CCOC(=O)c1c(CSc2ccccc2)n(C)c2cc(Br)c(O)c(CN(C)C)c12 [Arbidol (umifenovir)]
  IC50: 3.54 µM

## COc1ccc2cc3[n+](cc2c1OC)CCc1cc2c(cc1-3)OCO2 [Berberine]
  IC50: 10.6 µM
  antiviral activity against SARS-CoV-2 (in words): dose-dependent antiviral responses

## COc1ccc([C@@H]2Sc3ccccc3N(CCN(C)C)C(=O)[C@@H]2OC(C)=O)cc1 [Diltiazem]
  antiviral activity against SARS-CoV-2 (in words): neither diltiazem nor ribavirin or favipiravir showed antiviral activity

## NC(=O)c1nc(F)c[nH]c1=O [Favipiravir, 6-fluoro-3-hydroxy-2-pyrazinecarboxamine]
  antiviral activity against SARS-CoV-2 (in words): neither diltiazem nor ribavirin or favipiravir showed antiviral activity

## Cc1cccc(C)c1OCC(=O)N[C@@H](Cc1ccccc1)[C@@H](O)C[C@H](Cc1ccccc1)NC(=O)[C@H](C(C)C)N1CCCNC1=O [Lopinavir]
  IC50: 5.25 µM

## CCC(CC)COC(=O)[C@H](C)N[P@](=O)(OC[C@H]1O[C@@](C#N)(c2ccc3c(N)ncnn23)[C@H](O)[C@@H]1O)Oc1ccccc1 [Remdesivir]
  IC50: 0.987 µM
In presence of 12.5 μM berberine versus remdesivir alone
  reduction of remdesivir IC50: > 2 fold
In presence of diltiazem (11.5 μM) versus remdesivir alone
  reduction of remdesivir IC50: up to 8.5 fold

## NC(=O)c1ncn([C@@H]2O[C@H](CO)[C@@H](O)[C@H]2O)n1 [Ribavirin, 1-β-D-ribofuranosyl-1,2,4-triazole-3-carboxamide]
  antiviral activity against SARS-CoV-2 (in words): neither diltiazem nor ribavirin or favipiravir showed antiviral activity
